{"source": "patent US20260216207A1", "about": "“7-CARBONYLSTAUROSPORINE DERIVATIVE, PREPARATION METHOD THEREFOR, AND USE THEREOF” (HANGZHOU KEXING BIOCHEM. CO., LTD., priority 2023, published 2026)", "format_in_all_cases": "biochemical", "key": {"[1]": {"molecular_target": "T1, PKCε (Homo sapiens, UniProt Q02156)", "T1 sequence (Q02156 1-737)": "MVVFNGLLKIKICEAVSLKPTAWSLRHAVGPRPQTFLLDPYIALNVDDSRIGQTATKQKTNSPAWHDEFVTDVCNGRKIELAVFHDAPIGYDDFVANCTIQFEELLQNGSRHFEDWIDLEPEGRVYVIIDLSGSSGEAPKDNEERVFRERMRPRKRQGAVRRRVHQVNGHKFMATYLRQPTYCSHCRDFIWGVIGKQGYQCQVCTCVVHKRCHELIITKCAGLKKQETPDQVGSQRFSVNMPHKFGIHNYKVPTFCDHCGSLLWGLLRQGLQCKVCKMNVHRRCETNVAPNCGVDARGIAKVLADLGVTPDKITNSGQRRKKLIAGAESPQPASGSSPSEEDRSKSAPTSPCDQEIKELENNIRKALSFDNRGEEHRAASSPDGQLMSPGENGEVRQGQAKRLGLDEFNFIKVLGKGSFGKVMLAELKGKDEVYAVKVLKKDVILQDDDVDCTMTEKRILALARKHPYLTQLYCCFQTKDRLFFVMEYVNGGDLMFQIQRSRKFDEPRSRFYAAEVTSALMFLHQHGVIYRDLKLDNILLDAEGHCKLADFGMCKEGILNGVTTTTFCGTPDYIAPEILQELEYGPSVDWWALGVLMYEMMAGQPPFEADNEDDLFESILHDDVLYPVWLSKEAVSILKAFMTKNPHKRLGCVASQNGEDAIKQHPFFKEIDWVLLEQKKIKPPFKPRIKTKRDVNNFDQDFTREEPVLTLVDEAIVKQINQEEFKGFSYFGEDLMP", "assay": "HTRF KinEASE kinase assay, PKCε (kinase selectivity)", "settings": "HTRF KinEASE kit, 3 duplicate wells; read-out: PKCε IC50", "method": "(§1) Inhibitory activities against PIM-1, TRKA, TRKB, FLT3, PKCδ, PKCε, PKCη, PAK4, PLK1, ROCK2, and IKKβ kinases were all determined using an HTRF®KinEASE™ kinase assay kit based on a time-resolved fluorescence technology. 7-carbonylstaurosporine (7OSTA) and TP-3654 were used as positive controls, and 3 duplicate wells were set in parallel. […] A signal ratio was calculated as F2/F1×10000, and then an IC50 value was calculated using Graphpad Prism 8 software."}, "[2]": {"molecular_target": "T2, FLT3 (Homo sapiens, UniProt P36888)", "T2 sequence (P36888 27-993)": "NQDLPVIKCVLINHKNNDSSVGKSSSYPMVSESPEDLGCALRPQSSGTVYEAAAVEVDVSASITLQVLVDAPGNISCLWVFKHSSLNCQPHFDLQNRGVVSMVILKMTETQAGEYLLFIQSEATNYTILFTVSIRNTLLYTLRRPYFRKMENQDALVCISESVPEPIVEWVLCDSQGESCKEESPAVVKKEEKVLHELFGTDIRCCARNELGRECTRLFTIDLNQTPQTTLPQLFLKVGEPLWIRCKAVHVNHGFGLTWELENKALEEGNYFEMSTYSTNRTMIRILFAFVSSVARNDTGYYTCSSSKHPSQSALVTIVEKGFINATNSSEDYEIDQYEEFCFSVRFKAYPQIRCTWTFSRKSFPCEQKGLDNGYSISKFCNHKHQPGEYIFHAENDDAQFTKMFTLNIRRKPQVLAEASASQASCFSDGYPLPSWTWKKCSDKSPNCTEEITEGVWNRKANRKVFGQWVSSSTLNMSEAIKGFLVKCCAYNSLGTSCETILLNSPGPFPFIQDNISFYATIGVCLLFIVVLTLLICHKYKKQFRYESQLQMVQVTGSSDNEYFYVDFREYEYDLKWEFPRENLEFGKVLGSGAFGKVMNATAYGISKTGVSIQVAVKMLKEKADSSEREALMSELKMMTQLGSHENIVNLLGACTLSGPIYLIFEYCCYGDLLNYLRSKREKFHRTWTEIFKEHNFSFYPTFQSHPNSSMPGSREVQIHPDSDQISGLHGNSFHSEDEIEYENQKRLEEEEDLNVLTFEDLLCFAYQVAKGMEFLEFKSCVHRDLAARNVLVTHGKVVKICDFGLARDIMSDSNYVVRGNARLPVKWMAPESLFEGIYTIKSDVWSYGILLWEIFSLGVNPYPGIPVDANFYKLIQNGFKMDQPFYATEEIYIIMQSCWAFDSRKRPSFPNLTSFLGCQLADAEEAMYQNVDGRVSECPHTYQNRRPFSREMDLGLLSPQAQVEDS", "assay": "HTRF KinEASE kinase assay, FLT3 (kinase selectivity)", "settings": "HTRF KinEASE kit, 3 duplicate wells; read-out: FLT3 IC50", "method": "as §1"}, "[3]": {"molecular_target": "PIM-1 kinase (Homo sapiens, UniProt P11309)", "sequence (P11309 whole entry)": "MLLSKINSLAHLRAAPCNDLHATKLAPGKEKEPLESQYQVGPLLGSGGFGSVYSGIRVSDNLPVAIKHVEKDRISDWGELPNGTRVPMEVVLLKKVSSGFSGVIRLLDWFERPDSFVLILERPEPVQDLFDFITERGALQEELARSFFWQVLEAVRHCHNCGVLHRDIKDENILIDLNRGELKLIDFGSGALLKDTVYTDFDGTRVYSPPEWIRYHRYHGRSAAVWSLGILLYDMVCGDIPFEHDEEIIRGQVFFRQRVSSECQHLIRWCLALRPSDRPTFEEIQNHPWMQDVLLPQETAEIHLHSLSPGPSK", "assay": "HTRF KinEASE kinase assay, PIM-1 inhibitory activity", "description": "Inhibitory activities against PIM-1, TRKA, TRKB, FLT3, PKCδ, PKCε, PKCη, PAK4, PLK1, ROCK2, and IKKβ kinases were all determined using an HTRF®KinEASE™ kinase assay kit based on a time-resolved fluorescence technology. 7-carbonylstaurosporine (7OSTA) and TP-3654 were used as positive controls, and 3 duplicate wells were set in parallel. Specific operation steps are as follows. • (1) A kinase buffer was formulated and then used to formulate compounds to be tested, a positive drug, a substrate, kinases, and adenosine triphosphate (ATP). • (2) 2 μL of the substrate, 2 μL of the kinases (the kinases were not added in a negative control group), 4 μL of the compounds to be tested or the positive drug (4 μL of a buffer was added in a positive control group, and 6 μL of a buffer was added in the negative control group), and 2 μL of the ATP were sequentially added into each well of a 384-well microplate, and the microplate was sealed with a membrane and then centrifuged for uniform mixing. • (3) According to different types of the kinases, incubation was performed in an incubator at 37° C. for a specific time. • (4) A detection solution was formulated using XL-665, an antibody, and a detection buffer, 10 µL of the detection solution was added into each well, the microplate was sealed with a membrane and then centrifuged for uniform mixing, and standing was performed at room temperature for 1 hour. • (5) Fluorescence value intensities F1 and F2 at wavelengths of 620 nm and 665 nm were measured using a multifunctional microplate tester, respectively. A signal ratio was calculated as F2/F1×10000, and then an IC50 value was calculated using Graphpad Prism 8 software."}, "[4]": {"molecular_target": "PKCδ (Homo sapiens, UniProt Q05655)", "sequence (Q05655 whole entry)": "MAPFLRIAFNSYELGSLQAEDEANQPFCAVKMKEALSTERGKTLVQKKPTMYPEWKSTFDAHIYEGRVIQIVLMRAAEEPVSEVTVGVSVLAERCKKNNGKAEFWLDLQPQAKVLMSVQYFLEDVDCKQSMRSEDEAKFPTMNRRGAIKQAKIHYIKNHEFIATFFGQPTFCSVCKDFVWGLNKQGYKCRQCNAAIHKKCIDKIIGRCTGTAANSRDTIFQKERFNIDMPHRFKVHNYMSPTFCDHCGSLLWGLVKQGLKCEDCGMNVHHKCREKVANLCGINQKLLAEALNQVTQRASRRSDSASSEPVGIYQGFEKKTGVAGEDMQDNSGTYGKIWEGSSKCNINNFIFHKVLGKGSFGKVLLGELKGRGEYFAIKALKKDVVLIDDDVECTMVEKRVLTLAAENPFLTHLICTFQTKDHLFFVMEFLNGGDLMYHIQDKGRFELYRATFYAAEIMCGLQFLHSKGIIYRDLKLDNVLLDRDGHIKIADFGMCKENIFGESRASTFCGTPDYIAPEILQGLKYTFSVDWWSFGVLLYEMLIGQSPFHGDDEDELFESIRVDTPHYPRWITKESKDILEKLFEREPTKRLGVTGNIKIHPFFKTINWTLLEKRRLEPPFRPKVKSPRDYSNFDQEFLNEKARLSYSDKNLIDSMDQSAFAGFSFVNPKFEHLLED", "assay": "HTRF KinEASE kinase assay, PKCδ (kinase selectivity)", "settings": "HTRF KinEASE kit, 3 duplicate wells; read-out: PKCδ IC50", "method": "as §1"}, "[5]": {"molecular_target": "PKCη (Homo sapiens, UniProt P24723)", "sequence (P24723 whole entry)": "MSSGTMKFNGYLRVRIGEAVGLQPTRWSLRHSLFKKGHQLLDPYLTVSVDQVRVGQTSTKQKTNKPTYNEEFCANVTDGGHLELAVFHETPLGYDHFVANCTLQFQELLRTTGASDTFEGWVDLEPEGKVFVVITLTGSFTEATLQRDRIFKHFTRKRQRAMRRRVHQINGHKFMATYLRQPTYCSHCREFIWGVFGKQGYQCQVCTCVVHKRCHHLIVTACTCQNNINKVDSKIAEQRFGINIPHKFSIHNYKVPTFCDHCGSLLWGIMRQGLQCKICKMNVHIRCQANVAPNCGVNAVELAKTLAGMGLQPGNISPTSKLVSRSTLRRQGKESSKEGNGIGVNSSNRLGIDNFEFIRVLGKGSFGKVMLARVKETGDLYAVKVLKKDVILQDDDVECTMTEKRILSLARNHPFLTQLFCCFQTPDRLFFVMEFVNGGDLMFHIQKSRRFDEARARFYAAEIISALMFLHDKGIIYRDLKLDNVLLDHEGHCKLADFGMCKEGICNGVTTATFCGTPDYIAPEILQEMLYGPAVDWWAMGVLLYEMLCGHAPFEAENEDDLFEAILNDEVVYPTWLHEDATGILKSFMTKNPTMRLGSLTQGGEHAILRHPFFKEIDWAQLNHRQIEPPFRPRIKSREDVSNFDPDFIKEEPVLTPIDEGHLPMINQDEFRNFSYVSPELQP", "assay": "HTRF KinEASE kinase assay, PKCη (kinase selectivity)", "settings": "HTRF KinEASE kit, 3 duplicate wells; read-out: PKCη IC50", "method": "as §1"}, "[6]": {"molecular_target": "PLK1 (Homo sapiens, UniProt P53350)", "sequence (P53350 whole entry, species assumed)": "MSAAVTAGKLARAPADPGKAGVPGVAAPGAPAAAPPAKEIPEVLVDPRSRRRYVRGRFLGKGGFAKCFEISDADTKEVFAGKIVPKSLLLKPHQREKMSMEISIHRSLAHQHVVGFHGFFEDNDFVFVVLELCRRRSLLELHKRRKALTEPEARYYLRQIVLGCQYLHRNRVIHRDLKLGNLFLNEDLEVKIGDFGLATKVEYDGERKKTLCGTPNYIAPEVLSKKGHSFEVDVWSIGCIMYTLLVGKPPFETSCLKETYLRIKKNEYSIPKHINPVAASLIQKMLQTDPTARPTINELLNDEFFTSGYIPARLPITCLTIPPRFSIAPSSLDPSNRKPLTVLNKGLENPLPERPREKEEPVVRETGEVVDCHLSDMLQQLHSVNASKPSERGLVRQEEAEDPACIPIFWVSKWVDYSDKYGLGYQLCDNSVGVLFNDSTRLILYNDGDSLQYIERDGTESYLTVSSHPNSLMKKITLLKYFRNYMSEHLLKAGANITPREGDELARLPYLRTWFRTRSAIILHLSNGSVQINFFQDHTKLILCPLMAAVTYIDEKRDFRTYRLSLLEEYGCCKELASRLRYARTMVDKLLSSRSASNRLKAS", "assay": "HTRF KinEASE kinase assay, PLK1 (kinase selectivity)", "settings": "HTRF KinEASE kit, 3 duplicate wells; read-out: PLK1 IC50", "method": "as §1"}, "[7]": {"molecular_target": "TRKA (Homo sapiens, UniProt P04629)", "sequence (P04629 33-796, species assumed)": "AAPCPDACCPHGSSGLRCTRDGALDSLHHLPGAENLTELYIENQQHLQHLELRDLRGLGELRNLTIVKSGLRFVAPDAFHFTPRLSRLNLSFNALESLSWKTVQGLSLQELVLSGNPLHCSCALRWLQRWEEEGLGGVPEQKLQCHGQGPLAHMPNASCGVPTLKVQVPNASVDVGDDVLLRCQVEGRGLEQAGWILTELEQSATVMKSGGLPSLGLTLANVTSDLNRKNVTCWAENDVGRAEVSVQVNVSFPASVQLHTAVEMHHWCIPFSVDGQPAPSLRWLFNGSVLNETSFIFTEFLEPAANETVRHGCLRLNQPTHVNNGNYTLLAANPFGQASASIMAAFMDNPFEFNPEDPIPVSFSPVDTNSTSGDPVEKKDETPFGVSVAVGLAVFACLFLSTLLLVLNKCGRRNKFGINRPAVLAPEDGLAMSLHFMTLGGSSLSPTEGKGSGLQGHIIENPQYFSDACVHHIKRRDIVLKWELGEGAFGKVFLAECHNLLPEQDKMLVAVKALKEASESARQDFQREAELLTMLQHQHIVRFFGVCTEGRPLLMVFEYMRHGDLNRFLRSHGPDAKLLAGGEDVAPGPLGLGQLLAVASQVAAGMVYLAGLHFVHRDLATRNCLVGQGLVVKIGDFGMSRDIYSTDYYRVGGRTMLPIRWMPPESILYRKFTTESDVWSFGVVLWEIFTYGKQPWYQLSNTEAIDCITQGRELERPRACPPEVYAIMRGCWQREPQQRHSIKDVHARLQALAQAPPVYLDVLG", "assay": "HTRF KinEASE kinase assay, TRKA (kinase selectivity)", "settings": "HTRF KinEASE kit, 3 duplicate wells; read-out: TRKA IC50", "method": "as §1"}, "[8]": {"molecular_target": "ROCK2 (Homo sapiens, UniProt O75116)", "sequence (O75116 whole entry, species assumed)": "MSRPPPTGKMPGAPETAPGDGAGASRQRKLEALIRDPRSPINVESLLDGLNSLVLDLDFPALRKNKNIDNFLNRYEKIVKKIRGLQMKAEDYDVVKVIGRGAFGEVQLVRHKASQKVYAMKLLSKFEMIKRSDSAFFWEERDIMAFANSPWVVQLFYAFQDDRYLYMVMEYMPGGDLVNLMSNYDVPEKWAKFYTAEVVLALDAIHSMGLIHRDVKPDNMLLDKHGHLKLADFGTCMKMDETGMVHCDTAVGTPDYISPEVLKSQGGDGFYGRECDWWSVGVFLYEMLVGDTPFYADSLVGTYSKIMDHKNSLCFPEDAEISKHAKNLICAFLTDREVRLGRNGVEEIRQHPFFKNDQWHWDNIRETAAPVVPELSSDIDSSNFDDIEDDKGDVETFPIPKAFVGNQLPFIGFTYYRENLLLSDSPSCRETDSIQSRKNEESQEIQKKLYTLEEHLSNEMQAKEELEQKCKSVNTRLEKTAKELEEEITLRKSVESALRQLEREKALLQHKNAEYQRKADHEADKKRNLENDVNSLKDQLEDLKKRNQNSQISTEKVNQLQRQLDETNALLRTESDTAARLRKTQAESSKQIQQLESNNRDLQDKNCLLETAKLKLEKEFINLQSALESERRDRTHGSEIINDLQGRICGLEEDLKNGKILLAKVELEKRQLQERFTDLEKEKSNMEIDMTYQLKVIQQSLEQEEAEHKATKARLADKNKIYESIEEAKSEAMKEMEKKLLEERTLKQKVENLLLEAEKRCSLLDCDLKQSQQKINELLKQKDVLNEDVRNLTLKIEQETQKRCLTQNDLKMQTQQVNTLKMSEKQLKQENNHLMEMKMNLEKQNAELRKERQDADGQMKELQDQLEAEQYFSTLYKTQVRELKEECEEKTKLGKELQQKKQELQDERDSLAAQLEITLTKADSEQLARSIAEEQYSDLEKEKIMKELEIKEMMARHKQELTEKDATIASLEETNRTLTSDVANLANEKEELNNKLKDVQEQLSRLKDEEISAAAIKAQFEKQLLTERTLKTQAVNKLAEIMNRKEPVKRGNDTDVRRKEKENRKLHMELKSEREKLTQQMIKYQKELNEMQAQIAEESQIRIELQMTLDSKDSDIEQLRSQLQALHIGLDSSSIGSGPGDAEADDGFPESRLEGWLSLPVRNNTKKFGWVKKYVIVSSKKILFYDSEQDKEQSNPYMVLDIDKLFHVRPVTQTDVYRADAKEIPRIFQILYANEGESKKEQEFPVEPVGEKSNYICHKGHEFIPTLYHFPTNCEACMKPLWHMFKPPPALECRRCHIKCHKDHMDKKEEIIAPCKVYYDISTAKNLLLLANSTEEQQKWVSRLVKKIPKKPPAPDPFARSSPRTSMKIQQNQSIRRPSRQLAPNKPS", "assay": "HTRF KinEASE kinase assay, ROCK2 (kinase selectivity)", "settings": "HTRF KinEASE kit, 3 duplicate wells; read-out: ROCK2 IC50", "method": "as §1"}}, "note": "“Also recorded” adds a separate entry of the source.", "data": [{"smiles": "CO[C@@H]1[C@H](N(C)C(=O)CCC(=O)NO)C[C@H]2O[C@]1(C)n1c3ccccc3c3c4c(c5c6ccccc6n2c5c31)C(=O)NC4=O", "note": "[Compound 17]", "values": [{"measurement": "IC50", "setting": "[1]", "result": 0.069, "unit": "µM"}, {"measurement": "IC50", "setting": "[2]", "result": 0.0053, "unit": "µM"}, {"measurement": "IC50", "setting": "[3]; HTRF KinEASE kit, 3 duplicate wells, read-out: PIM-1 kinase inhibitory activity (IC50)", "result": 0.0059, "unit": "µM"}, {"measurement": "selectivity for the PIM-1 kinase (in words)", "setting": "[3]; versus TRKA, TRKB, FLT3, PKCδ, PKCε, PKCη, PAK4, PLK1, ROCK2, IKKβ", "result": "excellent selective inhibitory effect on the PIM-1 kinase; also recorded: excellent selective inhibition ability against the PIM-1 kinase"}, {"measurement": "IC50", "setting": "[4]", "result": 0.0104, "unit": "µM"}, {"measurement": "IC50", "setting": "[5]", "result": 0.0732, "unit": "µM"}, {"measurement": "IC50", "setting": "[6]", "result": 0.421, "unit": "µM"}, {"measurement": "IC50", "setting": "[7]", "result": 0.004, "unit": "µM"}, {"measurement": "IC50", "setting": "[8]", "result": 0.562, "unit": "µM"}]}]}
